Publication PMC5887109, “Unravelling the Molecular Determinants of Bee Sensitivity to Neonicotinoid Insecticides” (Current Biology, 2018)

Assays:
[1] = tested on: A. mellifera; assay: Acute contact (topical) insecticide bioassay of honeybees, with or without ABT; conditions: honeybees pretreated with ABT (1-aminobenzotriazole)
Method: Acute contact insecticide assays were performed on female A. mellifera following standard methods OECD 2013 [30]. Bioassays of B. terrestris were based on the OECD guidelines developed for honeybees but with bees assayed in individual Nicot cages. Bees were starved of sucrose solution for up to 2 hr to encourage feeding during the experiment. […] Controls were fed a solution of sucrose containing a concentration of acetone matching that of the highest treatment concentration. After 4-6 hr the syringes were assessed to see if bees had consumed the insecticide-sucrose solution. Those that had not consumed all of the solution were excluded from the experiment. Mortality was assessed 48 hr after feeding and lethal concentrations (LC50 values) were calculated by probit analysis using Genstat version 16 (VSN International). For synergist bioassays, B. terrestris or A. mellifera workers were first treated with 20 μg of piperonyl butoxide or 1 μg of aminobenzotriazole applied to the dorsal thorax. Synergist bioassays included an additional control group treated only with the synergist. 1 hr after synergist application, bees were then treated with the appropriate insecticide dosage as above.

[2] = tested on: transgenic Drosophila expressing B. terrestris CYP9Q5; assay: Insecticide bioassay of transgenic Drosophila expressing CYP9Q5; type: in vivo, Drosophila melanogaster; conditions: Act5C-GAL4 driven; ratio of LC50 values
Method: Fly lines were made homozygous for the transgene integrations. […] LC50 values were calculated as above.

[3] = tested on: CYP6AS5; assay: Metabolism by recombinant CYP6AS5/CPR microsomes, LC-MS/MS; conditions: thiacloprid hydroxylation
Text: All bee P450 (see Table S3 for accession numbers) and house fly NADPH-dependent cytochrome P450 reductase (CPR) (GenBank accession number Q07994) genes were obtained by gene synthesis (Geneart, CA, USA) and inserted into the pDEST8 expression vector (Invitrogen). Codon optimization of all bee genes was used to optimize expression in lepidopteran cell lines. The PFastbac1 vector with no inserted DNA was used to produce a control virus. The recombinant baculovirus DNA was constructed and transfected into Trichoplusia ni (High five cells, Thermo Fisher) using the Bac-to-Bac baculovirus expression system (Invitrogen) according to the manufacturer’s instructions. The titer of the recombinant virus was determined following protocols of the supplier. […] The protein content of samples was determined using Bradford reagent (Sigma) and bovine serum albumin (BSA) as a reference.
The total assay volume was 200 μL using three replicates for each data point. […] The assay was stopped by the addition of ice-cold acetonitrile (to 80% final concentration), centrifuged for 10 min at 3000 g and the supernatant subsequently analyzed by tandem mass spectrometry as described previously. […] Substrate turnover from two independent reactions were plotted versus controls and Michaelis-Menten kinetics determined using GraphPad Prism version 7 (GraphPad Software, CA, USA).

Compound | fold more sensitive after pretreatment with ABT [1] [fold] | resistance compared to control flies without the transgene [2] | metabolism by the recombinant P450 (in words) [3]
O=[N+]([O-])NC1=NCCN1Cc1ccc(Cl)nc1 [imidacloprid] | 2.7 | no significant differences | –
N#C/N=C1\SCCN1Cc1ccc(Cl)nc1 [thiacloprid] | – | – | weak activity
